Organism: Rattus norvegicus
Test: DrugMatrix - Regimen: Daily Repeat
Format: toxicity, organism-based, Sprague-Dawley
Set-up: regimen Daily Repeat, gender Male, age 6-8 weeks
Conditions: in vivo, po, route oral GAVAGE, […]; for ABSOLUTE BASOPHIL / ABSOLUTE EOSINOPHIL / ABSOLUTE LYMPHOCYTE / ABSOLUTE MONOCYTE / ABSOLUTE SEGMENTED NEUTROPHIL / BASOPHIL / EOSINOPHIL / ERYTHROCYTE COUNT / HEMATOCRIT / HEMOGLOBIN / LEUKOCYTE COUNT / LYMPHOCYTE / MEAN CORPUSCULAR HEMOGLOBIN / MEAN CORPUSCULAR HEMOGLOBIN CONCENTRATION / MEAN CORPUSCULAR VOLUME / MONOCYTE / NEUTROPHIL / NUCLEATED RED BLOOD CELLS / PLATELET COUNT: tissue Blood; for ALANINE AMINOTRANSFERASE / ALBUMIN / ALKALINE PHOSPHATASE / ASPARTATE AMINOTRANSFERASE / BLOOD UREA NITROGEN / CARBON DIOXIDE / CHLORIDE / CHOLESTEROL / CREATINE PHOSPHOKINASE / CREATININE / GLUCOSE / LACTATE DEHYDROGENASE / LIPASE / PHOSPHORUS / POTASSIUM / SODIUM / TOTAL BILIRUBIN / TOTAL PROTEIN / URIC ACID: tissue Plasma
[1] = 5 mg/kg, 120 h, dose level Low, time 5 day
[2] = 50 mg/kg, 72 h, dose level High, time 3 day
[3] = 50 mg/kg, 120 h, dose level High, time 5 day

O=C(Nc1ccc(Cl)c(Cl)c1)c1cc(Cl)cc(Cl)c1O [3,3',4',5-TETRACHLOROSALICYLANILIDE]
ABSOLUTE BASOPHIL [1]: 0 CELLS/uL
ABSOLUTE EOSINOPHIL [1]: 0 CELLS/uL
ABSOLUTE LYMPHOCYTE [1]: 11308.33 CELLS/uL
ABSOLUTE MONOCYTE [1]: 94.67 CELLS/uL
ABSOLUTE SEGMENTED NEUTROPHIL [1]: 1830.33 CELLS/uL
BASOPHIL [1]: 0%
EOSINOPHIL [1]: 0%
ERYTHROCYTE COUNT [1]: 5.77 x10E6/uL
HEMATOCRIT [1]: 35.8%
HEMOGLOBIN [1]: 13.8 G/DL
LEUKOCYTE COUNT [1]: 13.23 x10E3/uL
LYMPHOCYTE [1]: 85.33%
MEAN CORPUSCULAR HEMOGLOBIN [1]: 23.93 pg
MEAN CORPUSCULAR HEMOGLOBIN CONCENTRATION [1]: 38.53 G/DL
MEAN CORPUSCULAR VOLUME [1]: 62.1 fL
MONOCYTE [1]: 0.67%
NEUTROPHIL [1]: 14%
NUCLEATED RED BLOOD CELLS [1]: 0.33 /100WBC
PLATELET COUNT [1]: 1151 x10E3/uL
ALANINE AMINOTRANSFERASE [1]: 59 u/L
ALBUMIN [1]: 4.07 G/DL
ALKALINE PHOSPHATASE [1]: 368.33 u/L
ASPARTATE AMINOTRANSFERASE [1]: 97.67 u/L
BLOOD UREA NITROGEN [1]: 14.33 mg/dL
CARBON DIOXIDE [1]: 28.67 mmol/L
CHLORIDE [1]: 101.33 MEQ/L
CHOLESTEROL [1]: 63.33 mg/dL
CREATINE PHOSPHOKINASE [1]: 534.67 u/L
CREATININE [1]: 0.21 mg/dL
GLUCOSE [1]: 164 mg/dL
LACTATE DEHYDROGENASE [1]: 242 u/L
LIPASE [1]: 11.33 u/L
PHOSPHORUS [1]: 10.3 mg/dL
POTASSIUM [1]: 5.94 MEQ/L
SODIUM [1]: 143.17 MEQ/L
TOTAL BILIRUBIN [1]: 0.13 mg/dL
TOTAL PROTEIN [1]: 5.77 G/DL
URIC ACID [1]: 1.63 mg/dL
ABSOLUTE BASOPHIL [2]: 0 CELLS/uL
ABSOLUTE EOSINOPHIL [2]: 28.67 CELLS/uL
ABSOLUTE LYMPHOCYTE [2]: 9453.33 CELLS/uL
ABSOLUTE MONOCYTE [2]: 0 CELLS/uL
ABSOLUTE SEGMENTED NEUTROPHIL [2]: 884.67 CELLS/uL
BASOPHIL [2]: 0%
EOSINOPHIL [2]: 0.33%
ERYTHROCYTE COUNT [2]: 5.84 x10E6/uL
HEMATOCRIT [2]: 36.23%
HEMOGLOBIN [2]: 13.87 G/DL
LEUKOCYTE COUNT [2]: 10.37 x10E3/uL
LYMPHOCYTE [2]: 91%
MEAN CORPUSCULAR HEMOGLOBIN [2]: 23.83 pg
MEAN CORPUSCULAR HEMOGLOBIN CONCENTRATION [2]: 38.33 G/DL
MEAN CORPUSCULAR VOLUME [2]: 62.23 fL
MONOCYTE [2]: 0%
NEUTROPHIL [2]: 8.67%
NUCLEATED RED BLOOD CELLS [2]: 0 /100WBC
PLATELET COUNT [2]: 1272.33 x10E3/uL
ALANINE AMINOTRANSFERASE [2]: 61.67 u/L
ALBUMIN [2]: 4.1 G/DL
ALKALINE PHOSPHATASE [2]: 432.67 u/L
ASPARTATE AMINOTRANSFERASE [2]: 89.67 u/L
BLOOD UREA NITROGEN [2]: 13.33 mg/dL
CARBON DIOXIDE [2]: 31 mmol/L
CHLORIDE [2]: 101.67 MEQ/L
CHOLESTEROL [2]: 79.67 mg/dL
CREATINE PHOSPHOKINASE [2]: 183.67 u/L
CREATININE [2]: 0.21 mg/dL
GLUCOSE [2]: 125.67 mg/dL
LACTATE DEHYDROGENASE [2]: 128.33 u/L
LIPASE [2]: 11.33 u/L
PHOSPHORUS [2]: 10.67 mg/dL
POTASSIUM [2]: 6.23 MEQ/L
SODIUM [2]: 144.27 MEQ/L
TOTAL BILIRUBIN [2]: 0.2 mg/dL
TOTAL PROTEIN [2]: 5.8 G/DL
URIC ACID [2]: 1.03 mg/dL
ABSOLUTE BASOPHIL [3]: 0 CELLS/uL
ABSOLUTE EOSINOPHIL [3]: 19.33 CELLS/uL
ABSOLUTE LYMPHOCYTE [3]: 5934.67 CELLS/uL
ABSOLUTE MONOCYTE [3]: 58 CELLS/uL
ABSOLUTE SEGMENTED NEUTROPHIL [3]: 688 CELLS/uL
BASOPHIL [3]: 0%
EOSINOPHIL [3]: 0.33%
ERYTHROCYTE COUNT [3]: 6.18 x10E6/uL
HEMATOCRIT [3]: 36.87%
HEMOGLOBIN [3]: 14 G/DL
LEUKOCYTE COUNT [3]: 6.7 x10E3/uL
LYMPHOCYTE [3]: 88.33%
MEAN CORPUSCULAR HEMOGLOBIN [3]: 22.73 pg
MEAN CORPUSCULAR HEMOGLOBIN CONCENTRATION [3]: 38.03 G/DL
MEAN CORPUSCULAR VOLUME [3]: 59.67 fL
MONOCYTE [3]: 0.67%
NEUTROPHIL [3]: 10.67%
NUCLEATED RED BLOOD CELLS [3]: 0 /100WBC
PLATELET COUNT [3]: 1091 x10E3/uL
ALANINE AMINOTRANSFERASE [3]: 49.33 u/L
ALBUMIN [3]: 4.27 G/DL
ALKALINE PHOSPHATASE [3]: 412 u/L
ASPARTATE AMINOTRANSFERASE [3]: 76 u/L
BLOOD UREA NITROGEN [3]: 15.67 mg/dL
CARBON DIOXIDE [3]: 32 mmol/L
CHLORIDE [3]: 101 MEQ/L
CHOLESTEROL [3]: 77.33 mg/dL
CREATINE PHOSPHOKINASE [3]: 289 u/L
CREATININE [3]: 0.25 mg/dL
GLUCOSE [3]: 133.33 mg/dL
LACTATE DEHYDROGENASE [3]: 94.67 u/L
LIPASE [3]: 11.67 u/L
PHOSPHORUS [3]: 9.23 mg/dL
POTASSIUM [3]: 5.61 MEQ/L
SODIUM [3]: 145.93 MEQ/L
TOTAL BILIRUBIN [3]: 0.13 mg/dL
TOTAL PROTEIN [3]: 6.07 G/DL
URIC ACID [3]: 1.03 mg/dL

From ChEMBL document CHEMBL3885881, “DrugMatrix”
